Like-named read-outs stand apart in the source and are kept apart here.
System: Clostridium perfringens strain 56
Conditions: for Number of birds with macroscopic necrotic enteritis lesions: lesion score 2 or more = positive; for Birds with macroscopic necrotic enteritis lesions, Total (%) (positive chicken in total) / Number of birds with macroscopic necrotic enteritis lesions, total: total of days 21-23
[1] = day 21, product on silica carrier in feed 5 / 2.5 / 2 kg/ton in weeks 1 / 2 / 3 (low conc for monobutyrate)
[2] = day 22, product on silica carrier in feed 5 / 2.5 / 2 kg/ton in weeks 1 / 2 / 3 (low conc for monobutyrate)
[3] = day 23, product on silica carrier in feed 5 / 2.5 / 2 kg/ton in weeks 1 / 2 / 3 (low conc for monobutyrate)
[4] = product on silica carrier in feed 5 / 2.5 / 2 kg/ton in weeks 1 / 2 / 3 (low conc for monobutyrate)
[5] = product on silica carrier in feed at high conc 7.5 / 6 / 5.5 kg/ton in weeks 1 / 2 / 3

| Compound | Number of birds with macroscopic necrotic enteritis lesions [1] | Number of birds with macroscopic necrotic enteritis lesions (day 21, product on silica carrier in feed at high conc 7.5 / 6 / 5.5 kg/ton in weeks 1 / 2 / 3) | Number of birds with macroscopic necrotic enteritis lesions [2] | Number of birds with macroscopic necrotic enteritis lesions (day 22, product on silica carrier in feed at high conc 7.5 / 6 / 5.5 kg/ton in weeks 1 / 2 / 3) | Number of birds with macroscopic necrotic enteritis lesions [3] | Number of birds with macroscopic necrotic enteritis lesions (day 23, product on silica carrier in feed at high conc 7.5 / 6 / 5.5 kg/ton in weeks 1 / 2 / 3) | chickens died during the trial (pen 3: higher concentration in feed (7.5 / 6 / 5.5 kg/ton)) | Birds with macroscopic necrotic enteritis lesions, Total (%) (positive chicken in total) [4] | Number of birds with macroscopic necrotic enteritis lesions, total [4] | Birds with macroscopic necrotic enteritis lesions, Total (%) (positive chicken in total) [5] | Number of birds with macroscopic necrotic enteritis lesions, total [5] | Result in preventing Clostridium perfringens-induced necrotic enteritis compared with glyceryl monobutyrate at either concentration (FIG. 1) (added to the feed, P value <0.05 taken as significant) |
| --- | --- | --- | --- | --- | --- | --- | --- | --- | --- | --- | --- | --- |
| CCCC(=O)OCC(O)CO (centres unmarked) [glyceryl monobutyrate] | 5/9 | 4/9 | 3/9 | 5/9 | 2/10 | 3/8 | 2 | 36 | 10/28 | 46 | 12/26 | – |
| CCCC(=O)OCC(COC(=O)CCC)OC(=O)CCC [glyceryl tributyrate] | 3/9 | – | 2/9 | – | 2/11 | – | – | 24 | 7/29 | – | – | significantly better result |
